Test [1] concerns A3 adenosine receptor. To be noted: in vivo experiments, EXCLI J. 2020 Feb. 12; 19:187-200; cited from earlier work.
Test [2] deals with HuH-7:LX-2:ImKC triple co-culture. Put plainly: Marker changes in triple co-culture in vitro liver disease model (steatosis, inflammation, fibrosis) after drug treatment. The conditions noted are these: hepatic steatosis (FFA), inflammation (FFA+LPS) or fibrosis (FFA+TGF-β1) induced; FIGS. 5 to 14. Type of test: cell-based, human (HuH-7, mouse (ImKC). How it is done:
After the cells were fixed for 1 hour for direct co-culture, a 0.4 μm pore size cell culture insert (Corning™) was positioned on top of a direct co-culture dish for indirect co-culture of the corresponding cells with an immortalized mouse Kupffer cell line (ImKC). The cell suspensions of the immortalized mouse Kupffer cell line (ImKC) were added to the positioned cell culture insert (Corning™) such that the number of cells per area was 15,000 cells/cm^2, and the cells were cultured in a CO2 incubator (Thermo Scientific™) under 37° C. and 5% CO2 conditions for 24 hours (FIG. 1).
The cell culture dishes for each experimental group shown in the following Table 3, which was cultured for 24 hours in a CO2 incubator (Thermo Scientific™) under 37° C. and 5% CO2 conditions at 24 hours before FFA treatment, were taken out, the cell culture medium was carefully discarded, and a co-culture medium including 1,000 μM FFA (oleic:palmitic molar ratio 2:1) was added thereto. After FFA treatment, the cell culture dishes were incubated in a CO2 incubator (Thermo Scientific™) under 37° C. and 5% CO2 conditions for 144 hours. The co-culture medium including FFA was replaced at 48 and 96 hours after FFA treatment (FIG. 4).
The cell culture dishes for each experimental group shown in Table 3, which was cultured in a CO2 incubator (Thermo Scientific™) under 37° C. and 5% CO2 conditions at 72 and 96 hours before LPS treatment, were taken out, the cell culture medium was carefully discarded, and a culture medium including 0.5 ng/ml LPS was added to 1,000 μM FFA (oleic:palmitic molar ratio 2:1). After LPS treatment, the cell culture dishes were incubated in a CO2 incubator (Thermo Scientific™) under 37° C. and 5% CO2 conditions for 48 and 72 hours. […]
The absorbance of each cell culture treated with FM101 and the control material was measured in the same manner as in Experimental Example 3-1.
The absorbance of each cell culture treated with FM101 and the control material was measured in the same manner as in Experimental Example 3-2. […]

Turning to `OC1CSC(n2cnc3c(NCc4cccc(Cl)c4)nc(Cl)nc32)C1O` (stereo not shown) [FM101], the “modulation of A3 adenosine receptor as A3AR ligand” value in test [1] is recorded as “modulates an A3 adenosine receptor”. Also, in test [2], the “responsiveness of markers in triple co-culture cells on drug treatment, compared to directly co-cultured cells” value is “higher responsiveness and more concentration-dependent responsiveness”. Take `CC(C)c1cc(Oc2c(Cl)cc(-n3nc(C#N)c(=O)[nH]c3=O)cc2Cl)n[nH]c1=O` [MGL-3196, Resmetirom]: in test [2], the “responsiveness of markers in triple co-culture cells on drug treatment, compared to directly co-cultured cells” value is “higher responsiveness and more concentration-dependent responsiveness”. In the case of `CNC(=O)[C@H]1O[C@@H](n2cnc3c(NCc4cccc(I)c4)nc(Cl)nc32)[C@H](O)[C@@H]1O` [CF102, Namodenoson], the “responsiveness of markers in triple co-culture cells on drug treatment, compared to directly co-cultured cells” value in test [2] was “higher responsiveness and more concentration-dependent responsiveness”.

The record behind these values is US20240010987A1, “IN VITRO LIVER DISEASE MODEL USING TRIPLE CO-CULTURE AND PREPARATION METHOD THEREOF” (FUTURE MEDICINE CO., LTD., priority 2020, published 2024).
